Data on 4 compounds can be found in patent EP0380897B1, “Pharmaceutical agents for female sterilization by way of intrauterine administration, and their therapeutical use” (priority 1989, dated 1990).

In one data set the test system is trompes humaines. Nature of the data set: Clinical follow-up of pregnancies after non-surgical female sterilization with intrauterine quinacrine tablets, alone or with an anti-inflammatory adjuvant. The data set is classed as in vivo, femmes. Particulars: for taux de grossesse: quinacrine alone. The procedure:
(§1) Ce symptôme est survenu chez 6 % des sujets dans les deux insertions ou seulement dans une seule. • b) un phénomène de fièvre de 38°C à 39,5°C apparaissant le surlendemain du jour d'insertion et durant de 1 à 4 jours, sans relation avec le mal de tête. Les deux symptômes sont corrélés chez seulement quelques sujets. La fièvre est apparue chez 5 % des cas (parfois lors de la première insertion et parfois lors de la seconde). Les autres complications ont été semblables à celles décrites dans l'article publié précédemment J. Zipper et al. Adv. in Contraception 3(1987)255. A la fin de l'année de suivi, le taux de grossesse a été de 3,0 pour 100 femmes et par an.
(§2) Un autre groupe utilisant la quinacrine seule a été constitué, qui a subi deux insertions intra-utérines avec des comprimés à 180 mg. Les insertions ont été séparées par un cycle menstruel - 190 sujets sont entrés dans cette étude. […] Chez un petit nombre de sujets seulement les deux symptômes ont été présents simultanément. La fièvre est apparue dans 3% des cas (pas nécessairement lors des deux insertions). Ce groupe a manifesté un taux de grossesse de 3 pour 100 femmes, et par an à la fin de la première année du suivi. Les deux groupes quinacrine (250 et 180 mg) ont été considéré comme des témoins pour les autres groupes qui ont reçu un anti-inflammatoire, un antipyrétique et des substances anti-prostagrandines.
(§3) 4 mg de Bétaméthasone et 4 mg de Dexaméthasone ont été employé dans des groupes distincts de sujets. • 1 - 4 mg de Betaméthasone intra-musculaire Ce groupe incluait 90 sujets - 4 mg de Bethaméthasone ont été injectés lorsque le comprimé de quinacrine à 250 mg a été inséré. Ce procédé a été utilisé à nouveau avec le second comprimé (comprimé à 250 mg ayant un temps de dissolution de 100 mn). […] Les sujets ont achevé une année de suivi et ont représenté 1220 mois. […] Ce groupe incluait 65 sujets. […] Ces sujets ont effectué au total 830 mois de suivi. […] Ceci nous a conduit à faire des investigations sur la potentialisation possible des effets occlusifs de la quinacrine chez le rat dû à la betaméthasone. Cette méthode expérimentale est celle décrite pour d'autres substances (ref. Agent pharmacologique qui potentialisent ou inhibent l'action occlusivante de la quinacrine, dans le tube du lapin et dans l'utérus de rat cf J. ZIPPER-S.INSUNSA Female Stérilization - pronostic pour des techniques simplifiées pour le sujet ambulatoire Ed Gordon, W. Duncan, R.D. Falb et J. Joseph SPEIDEL (p 131-137), NEW YORK Acad. Press 1972 compte-rendu). La Betamethasone s'est révélée être active chez le rat, avec des solutions de l'ordre de 005 mg/ml. La base physiologique de cette action n'a pas été déterminée et aucun rapport à ce sujet n'a été publié (cf histologie de l'utérus de rat sous l'influence de 50 mg/ml de quinacrine + 0, 05 mg /ml Betamethasone Figure 1).
Ce groupe inclue 80 sujets. Lorque le comprimé de 250 mg est inséré, 4 mg de Dexamethatone sont injectés par voie intramusculaire. La méthode est réputée avec un second comprimé. […] Les sujets ont achevé 950 mois de suivi.
L'insertion est effectuée après que les comprimé aient été insérés. Ce groupe inclût 60 sujets. […] Ce groupe avait 850 mois de suivi.
La bétaméthasone et la Dexamethasone sont des stéroïdes ayant une activité puissante antiphlogistique, anti-inflammatoire et anti-oedemateuse au niveau cérébral et sont des adjuvants importants pour réduire les effets secondaires indésirables de la quinacrine lorsque cette substance est employée pour provoquer l'occlusion la région intra-murale des trompes humaines afin de réaliser une stérilisation pharmacologique. En outre, un mécanisme d'action qui n'est pas clair, semble renforcer l'action d'occlusion de la quinacrine à ce niveau. Le nombre total de sujets a été de 295 et a représenté 3850 mois/femmes d'observation. Seulement une grossesse a été détectée. […]

For another data set, the system named is utérus de rat. Nature of the data set: Potentiation of the occlusive effect of quinacrine in the rat uterus. To be noted: solutions of the order of 005 mg/ml (Figure 1: 50 mg/ml quinacrine + 0, 05 mg /ml). Format: in vivo. The procedure:
as §3, with “La base physiologique de cette action n'a pas été déterminée et aucun rapport à ce sujet n'a été publié (cf histologie de l'utérus de rat sous l'influence de 50 mg/ml de quinacrine + 0, 05 mg /ml Betamethasone Figure 1).” left out

The subject of another data set is sujets. Particulars: cited from earlier work.
The subject of a further data set is femmes. Nature of the data set: Clinical follow-up of side effects (fever, headache) after intrauterine insertion of quinacrine tablets, alone or with an anti-inflammatory adjuvant. Format: in vivo. The protocol:
as §1
as §2, with “anti-prostagrandines. […]” for “anti-prostagrandines.”
• 1 - Diclofenac sel de sodium - Cet important agent anti-inflammatoire et inhibiteur de synthèse de prostaglandine a été appliqué en une dose unique intramusculaire de 75 mg, lorsque le comprimé de quinacrine à 180 mg a été inséré. Deux insertions par sujet ont été effectuées, séparées par un cycle menstruel - 78 sujets ont été traités - 702 mois de suivi. […] Ce procédé a été utilisé à nouveau avec le second comprimé séparé par un cycle menstruel. […] Ce groupe incluait 85 sujets. Les sujets ont achevé 1190 mois de suivi. […] Cet agent antipyrétique anti-inflammatoire a été appliqué en une dose unique intramusculaire de 2 g lorsque le pellet de quinacrine à 180 mg (temps de dissolution 10 minutes) a été inséré. Deux insertions, séparées par un cycle mentruel ont été effectuées - 76 sujets ont été traités, 1064 mois de suivi. […] D'autres agents anti-inflammatoires , antiprostaglandine non stéroidiens comme le Piroxicam, Indomethacine, Ibuprogene, Naproxen ou d'autres peuvent être utilisés. La recherche avec quelques uns de ces agents est en développement. De même, la recherche avec les inhibiteurs de synthèse de prostaglandines appliqués par voie intrautérine ou intramusculaire une seule fois est en développement.

[1] abbreviates: share of subjects after the first insertion of quinacrine (250 mg).
Where [2] appears, read: share of subjects after the third insertion of quinacrine (250 mg).
Setting [3] is: 50 mg tablets by the 'intra-urétine' route simultaneously with quinacrine tablets (180 mg, dissolution time 10 min), two insertions, 85 subjects, first seven days.
Setting [4] is: single 75 mg intramuscular dose at each of two insertions of 180 mg quinacrine tablet, 78 subjects, first week.

Each structure is given as a SMILES string. Like-named read-outs stand apart in the source and are kept apart here.

On to `C[C@H]1C[C@H]2[C@@H]3CCC4=CC(=O)C=C[C@]4(C)[C@@]3(F)[C@@H](O)C[C@]2(C)[C@@]1(O)C(=O)CO` [Betaméthasone], for which the grossesse result is “Seulement une grossesse normotopique a été détectée” in the data set with trompes humaines (4 mg intramuscular at each of two insertions of 250 mg quinacrine tablet, 90 subjects, 1220 months of follow-up, pregnancy in sixth month) and “Aucune grossesse n'a été signalée” in the data set with trompes humaines (4 mg intrauterine (solution in 1 ml) simultaneously with quinacrine tablet, 65 subjects, 830 months of follow-up). Further, the “potentialisation des effets occlusifs de la quinacrine” value in the data set with utérus de rat is on record as “active”.
With `Cc1c(N(C)CS(=O)(=O)O)c(=O)n(-c2ccccc2)n1C` [Dipyrone, metamizol sel de sodium], in the data set with trompes humaines (single 2 g intramuscular dose at each of two insertions of 180 mg quinacrine pellet (dissolution time 10 min), 76 subjects, 1064 months of follow-up), the grossesse entry is given as “aucune grossesse n'a été détectée”.
For the compound `CCN(CC)CCCC(C)Nc1c2ccc(Cl)cc2nc2ccc(OC)cc12` (stereo not shown) [quinacrine], the taux de grossesse with trompes humaines (two insertions of 250 mg tablets, 209 subjects, 2544 months, end of the year of follow-up) is 3,0 pour 100 femmes et par an; in the data set with trompes humaines (two intrauterine insertions of 180 mg tablets, 190 subjects, end of first year of follow-up), 3 pour 100 femmes, et par an. Moreover, the fièvre is listed as 10% in the data set with sujets (setting [1]) and 2% in the data set on sujets (setting [2]). The entries for the “maux de tête” value in the data set with sujets (setting [1]) and with sujets (setting [2]) were 9% and 10,2%, respectively.
`O=C(O)Cc1ccccc1Nc1c(Cl)cccc1Cl` [Diclofenac sel de sodium]: in the data set on femmes (setting [3]), the fièvre entry was “ni fièvre” and the “maux de tête” value was “ni maux de tête”. For the same compound, in the data set with femmes (setting [4]), the fièvre result is listed as “ni fièvre” and the “mal de tête” value was “ni mal de tête”. The grossesse entry in the data set with trompes humaines (50 mg tablets by the 'intra-urétine' route simultaneously with quinacrine tablets (180 mg, dissolution time 10 min), 85 subjects, 1190 months of follow-up) is “Aucune grossesse n'a été détectée”. Further, the grossesse result in the data set with trompes humaines (single 75 mg intramuscular dose at each of two insertions of 180 mg quinacrine tablet, 78 subjects, 702 months of follow-up) was “aucune grossesse n'a été détectée”.
